Each block holds one compound with its values, some of them ahead of it.
Legend:
[1] = biological target: T1, Ectonucleoside triphosphate diphosphohydrolase 8 (Homo sapiens, UniProt Q5MY95); assay: Inhibition of human NTPDase8 expressed in green monkey Cos-7 cells using ATP as substrate preincubated for 3 mins followed by substrate addition by malachite green reagent based assay; format: cell-based
T1 sequence (Q5MY95 whole entry): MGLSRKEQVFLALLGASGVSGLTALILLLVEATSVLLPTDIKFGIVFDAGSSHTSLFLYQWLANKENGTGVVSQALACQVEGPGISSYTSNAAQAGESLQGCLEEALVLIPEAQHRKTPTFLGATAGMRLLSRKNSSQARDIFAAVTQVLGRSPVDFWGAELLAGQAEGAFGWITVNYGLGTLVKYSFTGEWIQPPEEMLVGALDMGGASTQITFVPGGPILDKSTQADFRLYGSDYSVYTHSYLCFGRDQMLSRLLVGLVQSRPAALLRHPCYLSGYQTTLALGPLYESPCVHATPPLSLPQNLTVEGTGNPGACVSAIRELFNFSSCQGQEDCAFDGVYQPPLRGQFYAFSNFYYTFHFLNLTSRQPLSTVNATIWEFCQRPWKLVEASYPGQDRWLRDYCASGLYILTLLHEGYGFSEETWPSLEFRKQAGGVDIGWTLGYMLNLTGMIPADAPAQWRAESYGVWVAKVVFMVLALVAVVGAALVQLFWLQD

[2] = biological target: T2, Ectonucleoside triphosphate diphosphohydrolase 1 (Mus musculus, UniProt P55772); assay: Inhibition of mouse CD39 expressed in green monkey Cos-7 cells using ATP as substrate preincubated for 3 mins followed by substrate addition by malachite green reagent based assay; format: cell-based
T2 sequence (P55772 whole entry): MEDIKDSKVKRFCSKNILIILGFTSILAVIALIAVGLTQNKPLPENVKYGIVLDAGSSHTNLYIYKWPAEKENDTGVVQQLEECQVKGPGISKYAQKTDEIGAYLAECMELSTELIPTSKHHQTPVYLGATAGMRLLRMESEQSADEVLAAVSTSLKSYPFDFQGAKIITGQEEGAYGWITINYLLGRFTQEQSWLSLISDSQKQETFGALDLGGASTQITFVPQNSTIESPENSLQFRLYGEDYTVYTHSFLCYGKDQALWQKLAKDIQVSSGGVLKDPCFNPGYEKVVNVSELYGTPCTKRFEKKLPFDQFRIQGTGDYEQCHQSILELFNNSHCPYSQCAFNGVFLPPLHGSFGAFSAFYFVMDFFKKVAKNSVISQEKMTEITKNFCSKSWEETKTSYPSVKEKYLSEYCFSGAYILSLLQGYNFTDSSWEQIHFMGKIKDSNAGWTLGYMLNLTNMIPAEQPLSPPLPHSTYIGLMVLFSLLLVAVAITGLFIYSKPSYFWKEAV

[3] = biological target: T3, Ectonucleoside triphosphate diphosphohydrolase 1 (Rattus norvegicus, UniProt P97687); assay: Inhibition of rat CD39 expressed in CHO cells using ATP as substrate incubated for 10 mins by UV absorbance method; format: cell-based; settings: cho
T3 sequence (P97687 whole entry): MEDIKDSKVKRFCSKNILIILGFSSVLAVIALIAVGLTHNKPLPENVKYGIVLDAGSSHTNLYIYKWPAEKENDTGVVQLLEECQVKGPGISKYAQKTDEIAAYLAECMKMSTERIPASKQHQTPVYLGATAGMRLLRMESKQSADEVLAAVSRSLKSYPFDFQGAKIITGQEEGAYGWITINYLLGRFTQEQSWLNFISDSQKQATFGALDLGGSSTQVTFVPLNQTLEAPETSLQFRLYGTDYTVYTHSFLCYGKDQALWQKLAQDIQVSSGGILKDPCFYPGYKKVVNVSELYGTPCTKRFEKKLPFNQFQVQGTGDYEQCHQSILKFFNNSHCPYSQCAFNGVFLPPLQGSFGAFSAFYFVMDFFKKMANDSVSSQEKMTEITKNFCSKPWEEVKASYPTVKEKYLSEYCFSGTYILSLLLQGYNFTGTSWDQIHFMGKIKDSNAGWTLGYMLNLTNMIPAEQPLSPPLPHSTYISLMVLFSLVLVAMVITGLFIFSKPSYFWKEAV

[4] = biological target: T4, Ectonucleoside triphosphate diphosphohydrolase 2 (Rattus norvegicus, UniProt O35795); assay: Inhibition of rat NTPDase2 expressed in CHO cells using ATP as substrate incubated for 10 mins by UV absorbance method; format: cell-based; settings: cho
T4 sequence (O35795 whole entry): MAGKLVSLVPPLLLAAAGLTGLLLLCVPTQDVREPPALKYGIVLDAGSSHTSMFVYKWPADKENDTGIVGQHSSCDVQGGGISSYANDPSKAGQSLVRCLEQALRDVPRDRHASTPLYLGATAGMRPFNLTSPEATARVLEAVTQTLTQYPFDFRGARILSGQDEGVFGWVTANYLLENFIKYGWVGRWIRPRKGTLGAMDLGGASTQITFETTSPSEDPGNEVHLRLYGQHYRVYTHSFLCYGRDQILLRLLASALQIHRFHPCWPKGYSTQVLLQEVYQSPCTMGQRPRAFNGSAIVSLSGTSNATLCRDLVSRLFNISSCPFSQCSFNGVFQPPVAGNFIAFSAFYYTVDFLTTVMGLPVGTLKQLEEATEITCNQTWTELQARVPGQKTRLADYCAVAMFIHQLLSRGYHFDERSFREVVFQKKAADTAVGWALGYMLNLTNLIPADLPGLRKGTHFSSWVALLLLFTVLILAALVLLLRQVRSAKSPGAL

[5] = Inhibition of rat NTPDase3 expressed in CHO cells using ATP as substrate incubated for 10 mins by UV absorbance method; format: cell-based
[6] = Selectivity ratio of Ki for rat NTPDase2 expressed in CHO cells to Ki for rat CD39 expressed in CHO cells
[7] = Selectivity ratio of Ki for rat NTPDase3 expressed in CHO cells to Ki for rat CD39 expressed in CHO cells
[8] = biological target: T5, Ectonucleoside triphosphate diphosphohydrolase 3 (Homo sapiens, UniProt O75355); assay: Competitive inhibition of human NTPDase3 using ATP as substrate preincubated for 3 mins followed by substrate addition and measured after 15 mins by Dixon and Cornish-Bowden plot analysis
T5 sequence (O75355 whole entry): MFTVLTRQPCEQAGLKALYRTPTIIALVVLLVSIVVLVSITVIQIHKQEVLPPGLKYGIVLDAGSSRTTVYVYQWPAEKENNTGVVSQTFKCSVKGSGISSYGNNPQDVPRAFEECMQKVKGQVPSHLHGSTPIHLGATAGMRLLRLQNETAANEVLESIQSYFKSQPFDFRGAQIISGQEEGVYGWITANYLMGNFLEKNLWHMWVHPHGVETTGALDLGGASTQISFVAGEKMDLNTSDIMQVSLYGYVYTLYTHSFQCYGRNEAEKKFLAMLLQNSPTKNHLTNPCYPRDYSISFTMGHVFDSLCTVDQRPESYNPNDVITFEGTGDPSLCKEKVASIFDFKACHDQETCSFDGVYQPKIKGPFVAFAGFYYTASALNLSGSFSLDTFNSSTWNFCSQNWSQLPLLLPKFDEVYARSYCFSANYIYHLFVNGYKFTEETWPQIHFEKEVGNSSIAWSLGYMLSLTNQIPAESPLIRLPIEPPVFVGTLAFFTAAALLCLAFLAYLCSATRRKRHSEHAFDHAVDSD

IC50 [1]: > 100 µM
IC50 [2]: > 100 µM
Structure (SMILES): Cc1ccc(C(=O)Nc2ccc(S(=O)(=O)O)c3cc(S(=O)(=O)O)cc(S(=O)(=O)O)c23)cc1NC(=O)c1cccc(NC(=O)Nc2cccc(C(=O)Nc3cc(C(=O)Nc4ccc(S(=O)(=O)O)c5cc(S(=O)(=O)O)cc(S(=O)(=O)O)c45)ccc3C)c2)c1 [SURAMIN]

Ki [3]: 0.328 µM
Ki [4]: 19.1 µM
Structure (SMILES): Nc1c(S(=O)(=O)[O-])cc(Nc2ccc3ccccc3c2)c2c1C(=O)c1ccccc1C2=O.[Na+]
Ki [5]: 2.22 µM
Ratio Ki [6]: 58
Ratio Ki [7]: 7

Structure (SMILES): CCN(CC)c1ncnc2c1ncn2[C@@H]1O[C@H](COP(=O)(O)OP(=O)(O)C(Br)(Br)P(=O)(O)O)[C@@H](O)[C@H]1O
Ki [8]: 18 µM

Source: ChEMBL document CHEMBL4680277, “Targeting Metabolism of Extracellular Nucleotides via Inhibition of Ectonucleotidases CD73 and CD39” (J Med Chem, 2020)
